{
  "source": "patent US7754707B2",
  "about": "“Methods of treatment of chronic immune disease” (R.E.D. Laboratories, N.V./S.A., priority 2002, dated 2010)",
  "key": {"[1]": {"system": "RNase L Protein in the Human Monocytic Leukemia Cell Line U937", "assay": "RNase L fragmentation (2-5A binding proteins) in U937 cells, treatment Regimen #1", "format": "cell-based", "details": "FIGS. 2 and 3 (Regimens #1 and #2)", "description": "(§1) In the first condition (Regimen #1), confluent cultures of U937 cells were allowed to remain in culture for an additional 7 days without feeding or media supplementation in order to induce the cells to begin to undergo apoptosis, resulting in the fragmentation of native RNase L (among other proteins)."}, "[2]": {"biological_target": "T1, elastase (Homo sapiens, UniProt P08246)", "T1 construct": "15 micrograms of U937 cell cytoplasmic protein extract was mixed with 0.1 microgram of ^32P-2-5A-radio labeled rRNase L; endogenous in cells; host or cells: U937 cells (cytoplasmic protein extract)", "T1 sequence (P08246 30-267)": "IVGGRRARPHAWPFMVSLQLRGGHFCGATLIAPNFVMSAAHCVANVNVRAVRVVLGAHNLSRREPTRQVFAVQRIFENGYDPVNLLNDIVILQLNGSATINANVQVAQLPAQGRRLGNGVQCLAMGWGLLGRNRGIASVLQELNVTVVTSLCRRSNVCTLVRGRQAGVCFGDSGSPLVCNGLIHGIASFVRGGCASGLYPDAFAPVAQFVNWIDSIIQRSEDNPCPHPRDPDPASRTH", "assay": "Fragmentation of radio labeled rRNase L by cytoplasmic protein extracts of cefoperazone-treated U937 cells", "format": "cell-based", "details": "extracts of U937 cells treated 72 hours with 10-1000 micrograms/mL; 15 micrograms extract, 5 minutes at 37 C; FIG. 4", "protocol": "as §1\nBriefly, 15 micrograms of U937 cell cytoplasmic protein extract was mixed with 0.1 microgram of ^32P-2-5A-radio labeled rRNase L for a fixed incubation period (5 minutes) at 37 C. The reaction was terminated by the addition of 2×SDS-PAGE loading buffer, the samples were prepared and electrophoresed as described above and analyzed using densitometry."}, "[3]": {"system": "alpha-1-antitrypsin", "details": "through direct interaction of the drug with HOCl; cited from earlier work"}},
  "note": "Entries after “also recorded” stand apart in the source; their conditions may differ.",
  "data": [
    {"smiles": "CCN1CCN(C(=O)N[C@@H](C(=O)N[C@@H]2C(=O)N3C(C(=O)O)=C(CSc4nnnn4C)CS[C@H]23)c2ccc(O)cc2)C(=O)C1=O", "note": "[cefoperazone]", "values": [
      {"measurement": "production of the low molecular weight fragment of native RNase L protein", "setting": "[1]", "value": "inhibition is dose-dependent"},
      {"measurement": "elastase activity (amount of LMW rRNase L protein generated from pre-labeled HMW rRNase L)", "setting": "[2]", "value": "inhibition occurs in a dose-dependent fashion; also recorded: marked inhibition of elastase activity"},
      {"measurement": "level of inactivation of alpha-1-antitrypsin by activated neutrophils", "setting": "[3]", "value": "reduce the level of inactivation of alpha-1-antitrypsin"}
    ]}
  ]
}
